In publication PMC3831292 (Frontiers in Pharmacology, 2013):

Columns and labels:
Assay in all cases: two-electrode voltage clamp, Xenopus oocytes
Type in all cases: cell-based
[1] = target: T1, hTRESK (K2P18.1, KCNK18) (Homo sapiens, UniProt Q7Z418); settings: read-out: TRESK
T1 construct: full-length cDNA in plasmid pEXO; cRNA injected into Xenopus laevis oocytes
T1 sequence (Q7Z418 1-384): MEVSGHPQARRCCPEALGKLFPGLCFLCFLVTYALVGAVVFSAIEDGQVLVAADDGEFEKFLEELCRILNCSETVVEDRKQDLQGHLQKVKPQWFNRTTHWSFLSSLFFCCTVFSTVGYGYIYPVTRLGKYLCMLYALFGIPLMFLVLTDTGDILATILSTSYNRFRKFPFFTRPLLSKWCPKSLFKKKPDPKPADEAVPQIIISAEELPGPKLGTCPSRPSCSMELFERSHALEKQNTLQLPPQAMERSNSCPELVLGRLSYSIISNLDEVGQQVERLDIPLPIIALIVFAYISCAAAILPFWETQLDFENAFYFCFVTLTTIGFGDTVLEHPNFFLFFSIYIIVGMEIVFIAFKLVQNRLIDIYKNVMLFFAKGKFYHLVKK
From the text: two-electrode voltage clamp, Xenopus oocytes on hTRESK (K2P18.1, KCNK18)

[2] = target: T2, hTASK-3 (K2P9.1, KCNK9) (Homo sapiens, UniProt Q9NPC2); settings: read-out: TASK-3
T2 construct: full-length cDNA in pBR4-TOPO (mutants in pCDNA3); cRNA injected into Xenopus laevis oocytes
From the text: two-electrode voltage clamp, Xenopus oocytes on hTASK-3 (K2P9.1, KCNK9)

[3] = target: T3, hTASK-1 (K2P3.1, KCNK3) (Homo sapiens, UniProt O14649); settings: read-out: TASK-1
T3 construct: full-length cDNA in pIRES-CD8 vector; cRNA injected into Xenopus laevis oocytes
From the text: two-electrode voltage clamp, Xenopus oocytes on hTASK-1 (K2P3.1, KCNK3)

T2 sequence (Q9NPC2 whole entry): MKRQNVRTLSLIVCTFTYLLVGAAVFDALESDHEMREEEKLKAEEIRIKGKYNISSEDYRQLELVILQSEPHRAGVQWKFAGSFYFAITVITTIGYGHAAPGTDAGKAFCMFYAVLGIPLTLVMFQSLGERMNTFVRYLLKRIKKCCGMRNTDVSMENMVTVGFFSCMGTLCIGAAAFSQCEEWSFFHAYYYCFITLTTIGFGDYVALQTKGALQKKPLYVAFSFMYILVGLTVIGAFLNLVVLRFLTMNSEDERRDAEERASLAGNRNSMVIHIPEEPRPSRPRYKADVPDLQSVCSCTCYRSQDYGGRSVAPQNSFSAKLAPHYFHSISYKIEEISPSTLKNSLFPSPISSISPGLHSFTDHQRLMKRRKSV
T3 sequence (O14649 whole entry): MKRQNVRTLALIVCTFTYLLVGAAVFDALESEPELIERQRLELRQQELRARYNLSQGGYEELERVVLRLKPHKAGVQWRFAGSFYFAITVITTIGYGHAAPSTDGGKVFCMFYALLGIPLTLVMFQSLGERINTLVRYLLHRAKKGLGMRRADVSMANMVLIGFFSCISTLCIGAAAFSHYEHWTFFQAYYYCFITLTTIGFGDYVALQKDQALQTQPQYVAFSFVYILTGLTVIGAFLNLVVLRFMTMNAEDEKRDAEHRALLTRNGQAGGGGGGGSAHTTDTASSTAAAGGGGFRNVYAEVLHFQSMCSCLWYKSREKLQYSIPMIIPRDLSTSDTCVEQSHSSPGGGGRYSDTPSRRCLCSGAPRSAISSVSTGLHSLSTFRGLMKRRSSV

IC50 [1]	IC50 [2]	IC50 [3]	Compound
231 ± 105 µM	133 ± 5.9 µM	–	O=C(/C=C/C=C/c1ccc2c(c1)OCO2)N1CCCCC1 [piperine]
155 ± 70.9 µM	385 ± 55.6 µM	227 ± 46.5 µM	CCCCC[C@H](O)CC(=O)CCc1ccc(O)c(OC)c1 [6-gingerol]
–	328 ± 24.7 µM	485 ± 18.2 µM	CC1(C)CCC[C@]2(C)[C@@H](C=O)C(C=O)=CC[C@@H]12 [polygodial]

Compound	IC50 [1]	IC50 [2]	IC50 [3]
COc1cc(CNC(=O)CCCC/C=C/C(C)C)ccc1O [capsaicin]	70.2 ± 5.3 µM	41.8 ± 3.6 µM	61.1 ± 4 µM
